Data taken from patent publication US20110300142A1, “USE OF ZEBURALINE FOR THE TREATMENT OF AUTOIMMUNE DISEASES OR IMMUNE REJECTION OF TRANSPLANTS” (priority 2007, published 2011).

Key:
[1] = compared to azacytidine or 2′-deoxy-azacytidine; cited from earlier work
IDO [2] = experiment: IDO induction in human buffy coat leukocyte cultures; assay type: cell-based; conditions: different human leukocyte cultures, slight interindividual variation
Excerpt: (§1) In an experiment the inventors tested the immunogenicity of genetically engineered rat colon cancer cells expressing rat interleukin 12. These cancer cells have repeatedly been used to immunize rats that create a strong immune response towards the rat tumour cells. […] This was congruent with the changes in expression of IDO (FIG. 3). […] There is a very reproducible induction of IDO (about 20-fold) from different human leukocyte cultures with a slight interindividual variation.

IDO mRNA expression = experiment: qRT-PCR analysis of IDO mRNA expression in rat colon cancer cell lines; assay type: cell-based; conditions: for increase of the IDO mRNA level: 100 μM zebularine, normalized to HPRT
Description: The values given are normalized in relation to the HPRT expression values.
(§2) The treatment with 100 μM of zebularine induced IDO mRNA expression in all three cell lines. A 48-fold increase of the IDO mRNA level in the H1D2WT cell line, a 24-fold increase in the H1D2IL12C46 cell line and a 14-fold increase in the H1D2IL18C2 cell line were detected. […] The inventors know that the 100 μM treatment of tumour cells strongly induces the production of the immunosuppressive molecule IDO but the induction of other T cell immunosuppressive molecules might also be involved, although no evidence has been found for an effect on prostaglandine E2 (PGE2) or nitric oxide (NO) production. It seems that the 100 μM zebularine treatments are not affecting the PGE2 production, the NO production, or the production of tumour antigens.

[3] = mouse, cited from earlier work
human lymphocytes = experiment: Proliferation of stimulated human lymphocytes; assay type: cell-based
Description: (§3) FIG. 4A show proliferation of stimulated human lymphocytes after five days in culture in the presence of zebularine at different concentrations, FIG. 4B show restoration of inhibited proliferation of stimulated human lymphocytes after five days in culture in the presence of zebularine at two different concentrations and the IDO inhibitor 1-methyl tryptophane at 100 μM and FIG. 4C show proliferation of stimulated rat spleen lymphocytes after four days in culture in the presence of zebularine at different concentrations.
as §1

IDO [4] = experiment: IDO production in rat spleen cells; assay type: cell-based; conditions: similar treatment (100 μM)
Excerpt: as §1

tumour cells = experiment: PGE2, NO and tumour antigen production of treated tumour cells; assay type: cell-based, rat; conditions: 100 μM zebularine treatment
Description: as §2

rat spleen lymphocytes = experiment: Proliferation of stimulated rat spleen lymphocytes; assay type: cell-based; conditions: rat spleen cells
Description: as §3, §1

p16 gene expression = conditions: zebularine 100-500 μM; cited from earlier work
[5] = cited from earlier work
bladder carcinoma cells = conditions: zebularine 500-1000 mg/kg; cited from earlier work
rat colon cancer cells = experiment: Immunization of rats with zebularine-pretreated tumour cells; proliferative response of spleen cells / immunogenicity; assay type: in vivo
Description: as §2, §1

With `O=c1ncccn1[C@@H]1O[C@H](CO)[C@@H](O)[C@H]1O` [zebularine, 1-(β-D-Ribofuranosyl)-1,2-dihydropyrimidin-2-one] as the compound, how does the stability [1] read?
The stability was “stable”.

What about the toxicity [1] of the same compound?
Its toxicity is “not very toxic”.

And the “induction of IDO” value (IDO [2])?
Its value is “about 20 fold”.

What about the “production of IDO” value (IDO mRNA expression; 100 μM) of the same compound?
The value was “strongly enhance”.

And the “increase of the IDO mRNA level” value (IDO mRNA expression; H1D2IL12C46 cell line)?
Its value is 24 fold.

What about the “increase of the IDO mRNA level” value (IDO mRNA expression; H1D2IL18C2 cell line) of the same compound?
The value was 14 fold.

And the “increase of the IDO mRNA level” value (IDO mRNA expression; H1D2WT cell line)?
The value was 48 fold.

What about the “fraction of dose absorbed in tissues” value ([3]; i.v., 100 mg/kg, plasma, red blood cells, liver, kidney, spleen, heart, lung, muscle, Duodenum, Jejunum, Ileum, Colon and Carcass) of the same compound?
Its value is “about 60%”.

What about the “bioavailability after i.v. injection” value ([3]; i.v.) of the same compound?
Its value is “good”.

And the “bioavailability for Fat, Brain, Testes, Cecum and Stomach” value ([3]; i.v.)?
Its value is “less”.

And the turnover in tissues ([3]; many tissues)?
The turnover in tissues was “quite fast”.

And the metabolites [3]?
Its metabolites is “uridine, uracil and dihydrouracil”.

What about the polyclonal lymphocyte proliferation (human lymphocytes; human buffy coat leukocytes) of the same compound?
Its polyclonal lymphocyte proliferation is “strong suppression”.

And the IDO production (IDO [4])?
Its IDO production is “enhanced IDO production”.

What about the NO production (tumour cells) of the same compound?
Its NO production is “not affecting”.

What about the PGE2 production (tumour cells) of the same compound?
The PGE2 production was “not affecting”.

What about the “production of tumour antigens” value (tumour cells) of the same compound?
Its value is “not affecting”.

And the polyclonal lymphocyte proliferation (rat spleen lymphocytes)?
Its polyclonal lymphocyte proliferation is “strong suppression”.

And the p16 gene expression (p16 gene expression)?
The p16 gene expression was “induces p16 gene expression”.

And the solubility in water [5]?
The solubility in water was “soluble in water”.

What about the “in vivo p16 gene expression” value (bladder carcinoma cells) of the same compound?
The value was “induced”.

What about the tumour volume (bladder carcinoma cells) of the same compound?
Its tumour volume is “reduced”.

What about the “immunogenicity of rat colon cancer cells expressing rat interleukin 12 when used for immunization” value (rat colon cancer cells; cells pre-treated with 100 μM zebularine) of the same compound?
The value was “less immunogenic”.

And the “proliferative response of non-adherent spleen cells stimulated with tumor cells in vitro” value (rat colon cancer cells; rats immunized with tumour cells pretreated with 100 μM zebularine)?
The value was “very weak proliferative response”.

For `Cn1cc(C[C@H](N)C(=O)O)c2ccccc21` [1-methyl tryptophan, reference compound], which “effect on zebularine-induced suppression of proliferation” value (human lymphocytes; IDO inhibitor added to zebularine-treated stimulated human lymphocytes, 100 μM, five days) is on record?
The value was “can be blocked”.
